# Measured values published in patent US20240299376A1, “METHOD OF TREATING A CONDITION USING A […] EFFECTIVE DOSE OF 1-(1-OXO-1,2-DIHYDROISOQUINOLIN-5-YL)-5-(TRIFLUOROMETHYL)-N-(2-(TRIFLUOROMETHYL)PYRIDIN-4-YL)-1H-PYRAZOLE-4-CARBOXAMIDE” (Janssen Pharmaceutica NV, priority 2021, published 2024).
# Read-outs that look alike come from different tables or passages of the source.
# What was measured:
# [1] = test system: OCI-LY10 human DLBCL xenografts; assay: Antitumor efficacy in established OCI-LY10 human DLBCL xenografts; type: in vivo, NSG mice; details: 3.5 weeks
# Procedure: Tumor volume was calculated using the formula: tumor volume (mm^3)=(Dxd^2/2); where ‘D’ represents the larger diameter, and ‘d’ the smaller diameter of the tumor as determined by caliper measurements. Tumor volume data was graphically represented as the mean tumor volume±SEM.
# Percent tumor growth inhibition (TGI) was defined as the difference between mean tumor volumes of the treated and control group, calculated as
# where TVc is the mean tumor volume of a given control group and TVt is the mean tumor volume of the treatment group. As defined by National Cancer Institute criteria, ≥60% TGI is considered biologically significant.
# Group tumor volumes are graphed as the mean+SEM. Mice were implanted SC on the right flank on Day 0.
# OCY-LY10 cells were maintained at 37° C. in a humidified atmosphere (5% CO2, 95% air), in RPMI-1640 medium with GlutaMAX™, supplemented with 10% Fetal Bovine Serum (Heat Inactivated at 57° C.) and 1% Penicillin-Streptomycin. Each mouse received 1×10^6 OCI-LY10 cells in serum-free RPMI-1640 medium with Matrigel in 1:1 ratio in a total volume of 0.2 mL. Cells were implanted SC in the right flank using a 1 mL syringe and a 26-gauge needle. The day of tumor implantation was designated as Day 0.
# For study 4, study animals were randomly assigned into treatment groups, when the mean OCI-LY10 tumor volume reached 169 mm^3 (Day 15 post-tumor cell implantation). Treatment was initiated the day after randomization (Day 16). Treatment for the antitumor efficacy study lasted for 24 days until Day 40, when most animals in the Vehicle control group reached ethical tumor volume limits. […] Blood was collected from the retro-orbital sinus and submitted for bioanalytical analysis.
# [2] = Serum and tumor levels after multiple oral doses in male OCI-LY3 tumor-bearing NSG mice; type: in vivo; details: mean (SD); for concentration at 7 h / concentration at 12 h / concentration at 4 h / concentration at 24 h / Kp at 12 h / Kp at 24 h: male, NSG, mouse; for concentration at 7 h: 7 h post dose; for Kp at 12 h: Day 5, 12 h post dose, read-out: Tumor: serum ratio; for Kp at 24 h: read-out: Tumor:serum ratio
# Procedure: Serum samples were collected at 7 and 12 hours post dose and tumor samples were collected 12 hours post last dose from the twice-daily-treated animals. From once-daily-treated animals, serum samples were collected at 4, 12, and 24 hours post dose and tumor samples were collected at 24 hours post last dose.
# [3] = test system: human cytokine IL-10 in serum; assay: Serum IL-10 (MSD assay) after a single dose in OCI-LY3 tumor-bearing NSG mice; type: in vivo
# Procedure: NF-κB signaling regulates the secretion of multiple cytokines, including interleukin-10 (IL-10). MALT1 inhibition results in a decrease of IL-10 transcription and translation as well as secretion. Levels of the human cytokine IL-10 were measured in the serum of OCI-LY3 or OCI-LY10 ABC-DLBCL tumor bearing mice using a Mesoscale Discovery assay (MSD). 25 μL of mouse serum was transferred to an MSD plate (V-Plex Proinflammation Panel I (human) kit) and incubated together with 25 μL diluent 2 (MSD; R51BB-3) for 2 hours at RT followed by a 2-hour incubation with IL-10 antibody solution. Plates were read on a SECTOR imager. Serum human IL-10 levels were correlated to serum compound concentration.
# Serum IL-10 levels are graphed as the mean+/−SD.
# For PD, when tumors reached 550-750 mm^3 animals were assigned randomly into the treatment groups and treated as presented in Table 5. Dose volumes were adjusted to individual body weights at 10 mL/kg. For both PD studies, serum was collected at 2 and 12 hours post treatment from the retro-orbital sinus. At 24 hours post treatment, animals were bled via decapitation and tumors were excised, weighed, and divided for bioanalysis and ex vivo PD analysis. Blood was centrifuged at 10,000 rpm and serum divided for bioanalysis and PD analysis.
# [4] = test system: IL-10 secretion by OCI-LY3 ABC-DLBCL cells; assay: IL-10 secretion assay (MesoScale Discovery); type: cell-based; details: Homo sapiens; supernatants of OCI-LY3 cells, 16 independent experiments
# Procedure: (§1) NF-κB signaling regulates the secretion of multiple cytokines, including interleukin (IL)-6 and IL-10. Libermann T A et al. Mol Cell Biol. 1990; 10(6):3155-3162; and Cao S, et al. J Biol Chem. 2006; 281(36):26041-26050. Secretion of the cytokines IL-6 and IL-10 by OCI-LY3 ABC-DLBCL cells was measured using a MesoScale Discovery (MSD) assay.
# [5] = test system: IL-6 secretion by OCI-LY3 ABC-DLBCL cells; assay: IL-6 secretion assay (MesoScale Discovery); type: cell-based; details: Homo sapiens; supernatants of OCI-LY3 cells, 16 independent experiments
# Procedure: as §1
# [6] = test system: HLY-1 (Myd88/CARD11/homoz A20 mut); assay: Anti-proliferative activity, DLBCL cell line panel; type: cell-based; details: 192 h; antiproliferation after 8 days of treatment
smiles,measurement,setting,value
"O=C(Nc1ccnc(C(F)(F)F)c1)c1cnn(-c2cccc3c(=O)[nH]ccc23)c1C(F)(F)F [Compound A, 1-(1-oxo-1,2-dihydroisoquinolin-5-yl)-5-(trifluoromethyl)-N-[2-(trifluoromethyl)pyridin-4-yl]-1H-pyrazole-4-carboxamide]",TGI,"[1]; 3 mg/kg BID PO, not statistically significant",11%
same,TGI,[1]; 10 mg/kg BID PO,41%
same,TGI,[1]; 30 mg/kg BID PO,54%
same,TGI,[1]; 100 mg/kg BID PO,62%
same,Serum concentration,"[2]; 10 mg/kg twice daily PO, Day 5 eight doses given, 12 h post dose (trough)","2,202 (313) ng/ml"
same,concentration at 7 h,"[2]; serum, oral, 10 mg/kg, 10 mg/kg twice daily PO, Day 1 following first dose",3.26 µg/mL
same,concentration at 12 h,"[2]; serum, oral, 10 mg/kg, 10 mg/kg twice daily PO, Day 1 following first dose, 12 h post dose, read-out: Serum concentration",2.44 µg/mL
same,concentration at 7 h,"[2]; serum, oral, 10 mg/kg, 10 mg/kg twice daily PO, Day 4 seven doses given",3.76 µg/mL
same,concentration at 12 h,"[2]; serum, oral, 10 mg/kg, 10 mg/kg twice daily PO, Day 5 eight doses given, 12 h post dose (trough), read-out: Serum concentration",2.2 µg/mL
same,concentration at 7 h,"[2]; serum, oral, 30 mg/kg, 30 mg/kg twice daily PO, Day 1 following first dose",9.97 µg/mL
same,concentration at 12 h,"[2]; serum, oral, 30 mg/kg, 30 mg/kg twice daily PO, Day 1 following first dose, 12 h post dose, read-out: Serum concentration",9 µg/mL
same,concentration at 7 h,"[2]; serum, oral, 30 mg/kg, 30 mg/kg twice daily PO, Day 4 seven doses given",7.42 µg/mL
same,concentration at 12 h,"[2]; serum, oral, 30 mg/kg, 30 mg/kg twice daily PO, Day 5 eight doses given, 12 h post dose, read-out: Serum concentration",3.89 µg/mL
same,concentration at 7 h,"[2]; serum, oral, 100 mg/kg, 100 mg/kg twice daily PO, Day 1 following first dose",16.2 µg/mL
same,concentration at 12 h,"[2]; serum, oral, 100 mg/kg, 100 mg/kg twice daily PO, Day 1 following first dose, 12 h post dose, read-out: Serum concentration",13.3 µg/mL
same,concentration at 12 h,"[2]; serum, oral, 100 mg/kg, 100 mg/kg twice daily PO, Day 5 eight doses given, 12 h post dose, read-out: Serum concentration",6.91 µg/mL
same,concentration at 4 h,"[2]; serum, oral, once daily PO, dose not printed in Table 8 (first group; b301: 60 and 100 mg/kg), Day 1, 4 h post dose",15 µg/mL
same,concentration at 4 h,"[2]; serum, oral, once daily PO, dose not printed in Table 8 (second group; b301: 60 and 100 mg/kg), Day 1, 4 h post dose",18.1 µg/mL
same,concentration at 24 h,"[2]; serum, po, once daily PO, dose not given (first group), Day 1, 24 h post dose, read-out: Serum concentration",2.06 µg/mL
same,concentration at 4 h,"[2]; serum, po, once daily PO, dose not given (first group), Day 4, 4 h post dose",9.85 µg/mL
same,concentration at 12 h,"[2]; serum, po, once daily PO, dose not given (first group), Day 4, 12 h post dose, read-out: Serum concentration",8.68 µg/mL
same,concentration at 24 h,"[2]; serum, po, once daily PO, dose not given (first group), Day 4, 24 h post dose, read-out: Serum concentration",1.38 µg/mL
same,concentration at 24 h,"[2]; serum, po, once daily PO, dose not given (second group), Day 1, 24 h post dose, read-out: Serum concentration",1.97 µg/mL
same,concentration at 4 h,"[2]; serum, po, once daily PO, dose not given (second group), Day 4, 4 h post dose",12.6 µg/mL
same,concentration at 12 h,"[2]; serum, po, once daily PO, dose not given (second group), Day 4, 12 h post dose, read-out: Serum concentration",11 µg/mL
same,concentration at 24 h,"[2]; serum, po, once daily PO, dose not given (second group), Day 4, 24 h post dose, read-out: Serum concentration",2.8 µg/mL
same,Kp at 12 h,"[2]; tumor and serum, 10 mg/kg twice daily PO",1
same,Kp at 12 h,"[2]; tumor and serum, 30 mg/kg twice daily PO",1.3
same,Kp at 12 h,"[2]; tumor and serum, 100 mg/kg twice daily PO",1.3
same,Kp at 24 h,"[2]; tumor and serum, once daily PO, dose not given (first group), Day 4, 24 h post dose",1.9
same,concentration at 12 h,"[2]; tumor, oral, 10 mg/kg, 10 mg/kg twice daily PO, Day 5 eight doses given, 12 h post dose, read-out: Tumor concentration",2160 ng/g
same,concentration at 12 h,"[2]; tumor, oral, 30 mg/kg, 30 mg/kg twice daily PO, Day 5 eight doses given, 12 h post dose, read-out: Tumor concentration",5050 ng/g
same,concentration at 12 h,"[2]; tumor, oral, 100 mg/kg, 100 mg/kg twice daily PO, Day 5 eight doses given, 12 h post dose, read-out: Tumor concentration",8830 ng/g
same,concentration at 24 h,"[2]; tumor, po, once daily PO, dose not given (first group), Day 4, 24 h post dose, read-out: Tumor concentration",2460 ng/g
same,concentration at 24 h,"[2]; tumor, po, once daily PO, dose not given (second group), Day 4, 24 h post dose, read-out: Tumor concentration",4300 ng/g
same,Kp at 24 h,"[2]; tumor/serum, once daily PO, dose not given (second group), Day 4, 24 h post dose",1.6
same,inhibition or reduction of serum IL-10,"[3]; single dose 10 mg/kg, 12 hours post dose",intermediate inhibition or reduction
same,inhibition or reduction of serum IL-10,"[3]; single dose 30 mg/kg, 12 hours post dose",completely inhibited or reduced serum IL-10
same,inhibition or reduction of serum IL-10,"[3]; single dose 100 mg/kg, 12 hours post dose",completely inhibited or reduced serum IL-10
same,inhibition or reduction of serum IL-10,"[3]; single dose, 24 hours post dose",lost at 24 hours post dose
same,IC50,[4],0.077 ± 0.024 µM
same,IC50,[5],0.114 ± 0.041 µM
same,IC50,[6],8.8 µM
